Experiments:
[1] = Maximum solubility of alkanediols in water (visual assessment); assay type: physicochemical; conditions: assessed at ambient temperature after 24 h storage at 5° C.; visual observation
From the text: The water solubility of a substance is the saturation mass concentration of the substance in water at a given temperature. The determination of the solubility in water relates to essentially pure substances which are stable in water and not volatile.
For the determination of the maximum water solubility of an alkanediol, water and different concentrations of the respective alkanediol were blended by stirring. […] The determination of whether the alkanediol has dissolved in water is based entirely on visual observation.

[2] = tested on: microbial load of natural polymers; assay: Microbial load of mixtures of natural polymers with alkanediols (plating, CFU count); assay type: cell-based, bacteria
Experimental: The following tests were performed to show the influence of different alkanediols on the microbial load of natural polymers.
A selection of natural polymers as specified in Table 1 was systematically analyzed in combination with different 1,2-alkanediols and 2,3-alkanediols (0.5%). The polymers were chosen to be representative from different polymer classes:
A mixture of the natural polymer (concentration as recommended by supplier) with water and 1,2-alkanediol (0.5%) or 2,3-alkanediol (0.5%) or a mixture of 1,2-alkanediol and 2,3-alkanediol (0.5% final concentration) was prepared, as representative of a cold formulation preparation processes, and directly sampled for determination of microbial load. Additionally, the mixtures were stored at 40° C. and again sampled for microbial load after 2 days and 7 days.
The microbial load of the mixtures was determined by plating 1000 μl (or respective dilutions of the material) on an agar plate based on universal bacterial growth medium (Caseinpepton-Sojamehlpepton-Bouillon, Merck 1.05459+Agar No. 1, Oxoid LP0011). The plates were then incubated at 37° C. for 5 days and then photo documented. In parallel, bacterial colonies were counted (CFU—colony forming units per ml).

[3] = Physical state of alkanediols and alkanediol mixtures at RTP; assay type: physicochemical; conditions: at RTP (room temperature, normal pressure); FIG. 3 and FIG. 4
From the text: The term “liquid alkanediol” within the context of the present invention means an alkanediol component which is liquid at room or ambient temperature and under normal pressure, i.e. standard RTP conditions.
FIG. 3 is a photograph showing from left to right samples of the liquid 1,2-pentanediol, 1,2-hexanediol, 1,2-heptanediol, 2,3-heptanediol, 2,3-octanediol and 2,3-undecanediol in comparison to the solid 1,2-octanediol, 1,2-undecanediol, 1,2-nonanediol and the liquid 2,3-nonanediol. The first six alkanediols are liquid at RTP, whereas 1,2-octanediol, 1,2-nonanediol and 1,2-undecanediol are solid substances at RTP; 2,3-nonanediol is also liquid at RTP.
FIG. 4 is a representative photograph of samples of mixtures of 1,2-alkanediols with the respective 2,3-alkanediol. All mixtures are liquid. They are shown in the following order: 1,2-heptanediol (95%)+2,3-heptanediol (5%), 1,2-octanediol (95%)+2,3-octanediol (5%), and 1,2-nonanediol (95%)+2,3-nonanediol (5%).

[4] = Covathick (2009, cellulose 0.5%) in water + 0.5% 1,2-alkanediol, 2 days storage at 40° C.
[5] = Covathick (2009, cellulose 0.5%) in water + 0.5% 1,2-alkanediol, 7 days storage at 40° C.
[6] = Covathick (2009, cellulose 0.5%) in water + 0.5% 1,2-alkanediol, fresh
[7] = Genuvisco (CG-131, carrageenan 0.5%) in water + 0.5% 1,2-alkanediol, 7 days storage at 40° C.
[8] = Genuvisco (CG-131, carrageenan 0.5%) in water + 0.5% 1,2-alkanediol, fresh
[9] = Nativacare (5600, corn starch 3%) in water + 0.5% 1,2-alkanediol, 2 days storage at 40° C.
[10] = Nativacare (5600, corn starch 3%) in water + 0.5% 1,2-alkanediol, 7 days storage at 40° C.
[11] = Nativacare (5600, corn starch 3%) in water + 0.5% 1,2-alkanediol, fresh
[12] = Polycos-N 75 (guar gum 0.5%) in water + 0.5% 1,2-alkanediol, 2 days storage at 40° C.
[13] = Polycos-N 75 (guar gum 0.5%) in water + 0.5% 1,2-alkanediol, 7 days storage at 40° C.
[14] = Polycos-N 75 (guar gum 0.5%) in water + 0.5% 1,2-alkanediol, fresh
[15] = Xanthan Gum (Rheocare XGN 0.5%) in water + 0.5% 1,2-alkanediol, 2 days storage at 40° C.

Structure (SMILES) | Maximum solubility in water [1] | Bacterial load (colony forming units) [2, 4] | Bacterial load (colony forming units) [2, 5] | Bacterial load (colony forming units) [2, 6] | Bacterial load (colony forming units) [2, 7] | Bacterial load (colony forming units) [2, 8] | Bacterial load (colony forming units) [2, 9] | Bacterial load (colony forming units) [2, 10] | Bacterial load (colony forming units) [2, 11] | Bacterial load (colony forming units) [2, 12] | Bacterial load (colony forming units) [2, 13] | Bacterial load (colony forming units) [2, 14] | Bacterial load (colony forming units) [2, 15] | Physical state [3] | further results
CCCCCC(O)CO (stereo not shown) [1,2-heptanediol] | 2.5 % by weight | 0 CFU per ml | 0 CFU per ml | 4 CFU per ml | 0 CFU per ml | 0 CFU per ml | 0 CFU per ml | 0 CFU per ml | 0 CFU per ml | 0 CFU per ml | 0 CFU per ml | 5 CFU per ml | 2 CFU per ml | liquid | Bacterial load (colony forming units) ([2]; Genuvisco (CG-131, carrageenan 0.5%) in water + 0.5% 1,2-alkanediol, 2 days storage at 40° C.): 0 CFU per ml; Bacterial load (colony forming units) ([2]; Table 4: Covathick (0.5%) in water + alkanediol or mixture, 0.5% total, 2 days storage at 40° C.): 0 CFU per mL; Bacterial load (colony forming units) ([2]; Table 4: Covathick (0.5%) in water + alkanediol or mixture, 0.5% total, 7 days storage at 40° C.): 0 CFU per mL; Bacterial load (colony forming units) ([2]; Table 4: Covathick (0.5%) in water + alkanediol or mixture, 0.5% total, fresh): 4 CFU per mL; Bacterial load (colony forming units) ([2]; Table 4: PolyCos N-75 (0.5%) in water + alkanediol or mixture, 0.5% total, 2 days storage at 40° C.): 0 CFU per mL; Bacterial load (colony forming units) ([2]; Table 4: PolyCos N-75 (0.5%) in water + alkanediol or mixture, 0.5% total, 7 days storage at 40° C.): 0 CFU per mL; Bacterial load (colony forming units) ([2]; Table 4: PolyCos N-75 (0.5%) in water + alkanediol or mixture, 0.5% total, fresh): 5 CFU per mL; Bacterial load (colony forming units) ([2]; Table 4: Xanthan Gum (0.5%) in water + alkanediol or mixture, 0.5% total, 2 days storage at 40° C.): 2 CFU per mL; Bacterial load (colony forming units) ([2]; Table 4: Xanthan Gum (0.5%) in water + alkanediol or mixture, 0.5% total, 7 days storage at 40° C.): 0 CFU per mL; Bacterial load (colony forming units) ([2]; Table 5: Covathick (0.5 %) in water + alkanediol or mixture, 0.5% total, 2 days storage at 40° C.): 0 CFU per mL; Bacterial load (colony forming units) ([2]; Table 5: Covathick (0.5 %) in water + alkanediol or mixture, 0.5% total, 7 days storage at 40° C.): 0 CFU per mL; Bacterial load (colony forming units) ([2]; Table 5: Covathick (0.5 %) in water + alkanediol or mixture, 0.5% total, fresh): 4 CFU per mL; Bacterial load (colony forming units) ([2]; Table 5: PolyCos N-75 (0.5 %) in water + alkanediol or mixture, 0.5% total, 2 days storage at 40° C.): 0 CFU per mL; Bacterial load (colony forming units) ([2]; Table 5: PolyCos N-75 (0.5 %) in water + alkanediol or mixture, 0.5% total, 7 days storage at 40° C.): 0 CFU per mL; Bacterial load (colony forming units) ([2]; Table 5: PolyCos N-75 (0.5 %) in water + alkanediol or mixture, 0.5% total, fresh): 5 CFU per mL; Bacterial load (colony forming units) ([2]; Table 5: Xanthan Gum (0.5 %) in water + alkanediol or mixture, 0.5% total, 2 days storage at 40° C.): 2 CFU per mL; Bacterial load (colony forming units) ([2]; Table 5: Xanthan Gum (0.5 %) in water + alkanediol or mixture, 0.5% total, 7 days storage at 40° C.): 0 CFU per mL; Bacterial load (colony forming units) ([2]; Xanthan Gum (Rheocare XGN 0.5%) in water + 0.5% 1,2-alkanediol, 7 days storage at 40° C.): 0 CFU per ml; Activity to stabilize natural polymer solutions for storage by removing their microbial load (in words) ([2]; compared to 1,2-pentanediol and 1,2-hexanediol, Table 2): superior activity
CCCCC(O)CO (stereo not shown) [1,2-hexanediol] | 50 % by weight | 0 CFU per ml | >13 CFU per ml | 3 CFU per ml | 0 CFU per ml | 3 CFU per ml | 0 CFU per ml | 0 CFU per ml | 1 CFU per ml | 19 CFU per ml | 2 CFU per ml | 9 CFU per ml | 1 CFU per ml | liquid | Bacterial load (colony forming units) ([2]; Xanthan Gum (Rheocare XGN 0.5%) in water + 0.5% 1,2-alkanediol, fresh): 7 CFU per ml
CCCCCCCC(O)CO (stereo not shown) [1,2-nonanediol] | 0.1 % by weight |  |  |  |  |  |  |  |  |  |  |  |  | solid | 
CCCCCCC(O)CO (stereo not shown) [1,2-octanediol] | 0.5 % by weight |  |  |  |  |  |  |  |  |  |  |  |  | solid | 
